Patent US20100292295A1, “5-OXO-3-PYRROLIDINECARBOXAMIDE DERIVATIVES AS P2X7 MODULATORS” (GLAXO GROUP LIMITED, priority 2007, published 2010)
Where “and” joins values, the source holds several entries; their conditions need not be identical. Equal values may be shown once.

How the values were obtained:
[1] = target: T1, human recombinant P2X7 receptors (Homo sapiens, UniProt Q99572); assay: Ethidium Accumulation Assay; format: cell-based; conditions: blocking ATP (1 mM) responses; HEK293 cells expressing human P2X7; read-out: pIC50 in the Ethidium Accumulation Assay (or a slightly modified version thereof), human P2X7 receptor antagonist activity (converted)
T1 construct: expressed in transfected cells
T1 sequence (Q99572 1-595): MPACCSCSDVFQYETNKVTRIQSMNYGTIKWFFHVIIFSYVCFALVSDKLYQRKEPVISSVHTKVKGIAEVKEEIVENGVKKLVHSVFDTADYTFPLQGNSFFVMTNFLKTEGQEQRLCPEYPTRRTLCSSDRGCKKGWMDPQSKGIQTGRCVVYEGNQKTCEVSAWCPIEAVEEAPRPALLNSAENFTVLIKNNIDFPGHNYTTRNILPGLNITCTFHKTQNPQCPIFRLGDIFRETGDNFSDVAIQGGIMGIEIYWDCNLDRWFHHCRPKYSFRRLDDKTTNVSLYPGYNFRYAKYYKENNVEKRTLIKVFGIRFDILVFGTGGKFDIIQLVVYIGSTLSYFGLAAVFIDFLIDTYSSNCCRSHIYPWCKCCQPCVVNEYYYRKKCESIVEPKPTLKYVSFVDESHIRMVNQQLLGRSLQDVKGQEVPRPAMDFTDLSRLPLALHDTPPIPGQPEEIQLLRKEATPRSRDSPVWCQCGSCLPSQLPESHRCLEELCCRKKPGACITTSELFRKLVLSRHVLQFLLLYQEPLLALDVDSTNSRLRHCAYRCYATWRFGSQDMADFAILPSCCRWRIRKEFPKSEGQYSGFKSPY
Procedure: Studies were performed using NaCl assay buffer of the following composition: 140 mM NaCl, 10 mM HEPES [4-(2-hydroxyethyl)-1-piperazine-1-ethanesulfonic acid], 5 mM N-methyl-D-glucamine, 5.6 mM KCl, 10 mM D-glucose, 0.5 mM CaCl2 (pH 7.4).
Human Embryonic Kidney (HEK) 293 cells, stably expressing human recombinant P2X7 receptors, were grown in poly-D-lysine pretreated 96 well plates for 18-24 hours. (The cloning of the human P2X7 receptor is described in U.S. Pat. No. 6,133,434, e.g. see Example 3 therein). The cells were washed twice with 350 μl of the assay buffer, before addition of 50 μl of the assay buffer containing the putative P2X7 receptor antagonist compound. (A small amount of dimethyl sulfoxide, for initially dissolving the compound, is optionally used and present in this 50 μl test compound sample.) The cells were then incubated at room temperature (19-21° C.) for 30 min before addition of ATP and ethidium (100 μM final assay concentration). The ATP concentration was chosen to be close to the EC80 for the receptor type and was 1 mM for studies on the human P2X7 receptor. Incubations were continued for 8 or 16 min and were terminated by addition of 25 μl of 1.3M sucrose containing 4 mM of the P2X7 receptor antagonist Reactive Black 5 (Aldrich). Cellular accumulation of ethidium was determined by measuring fluorescence (excitation wavelength of 530 nm and emission wavelength of 620 nm) from below the plate with a Canberra Packard Fluorocount (14 Station Road, Pangbourne, Reading, Berkshire RG8 7AN, United Kingdom) or a FlexStation II 384 from Molecular Molecular Devices (660-665 Eskdale Road, Wokingham, Berkshire RG41 5TS, United Kingdom). Antagonist pIC50 values for blocking ATP responses were determined using iterative curve fitting techniques.

[2] = target: T1, human recombinant P2X7 receptors; assay: Fluorescent Imaging Plate Reader (FLIPR) Ca Assay; format: cell-based; conditions: blocking BzATP (60 μM) responses; HEK293 or U-2OS cells expressing human P2X7; read-out: pIC50 in the FLIPR Ca Assay (or a slightly modified version thereof), human P2X7 receptor antagonist activity (converted)
Procedure: Studies were performed using NaCl assay buffer of the following composition for human P2X7: 137 mM NaCl; 20 mM HEPES [4-(2-hydroxyethyl)-1-piperazine-1-ethanesulfonic acid]; 5.37 mM KCl; 4.17 mM NaHCO3; 1 mM CaCl2; 0.5 mM MgSO4; and 1 g/L of D-glucose (pH 7.4).
Human Embryonic Kidney (HEK) 293 cells, stably expressing human recombinant P2X7 receptors, were grown in poly-D-lysine pretreated 384 well plates for 24 hours at […] (for a time sufficient for growth of a homogeneous layer of cells at the bottom of the wells). Alternatively, human osteosarcoma (U-20S) cells (commercially available), transduced with modified Baculovirus (BacMam) vector to deliver the gene coding for human P2X7 receptor (i.e. transiently expressing human recombinant P2X7 receptors), were grown in substantially the same conditions as for the HEK293 cells except that the well plates were not pre-treated with poly-D-lysine. (The cloning of the human P2X7 receptor is described in U.S. Pat. No. 6,133,434, e.g. see Example 3 therein). The cells were washed three times with 80 μl of assay buffer, loaded for 1 h at 37° C. with 2 μM Fluo-4-AM [4-(6-acetoxymethoxy-2,7-difluoro-3-oxo-9-xanthenyl)-4′-methyl-2,2′-(ethylenedioxy)dianiline-N,N,N′,N′-tetraacetic acid tetrakis(acetoxymethyl) ester], a Ca^2+-sensitive, cell-permeable, fluorescent dye (Tef Labs. Inc., 9415 Capitol View Drive, Austin, Tex. 78747, USA), washed three times again (3×80 μl), and left with 30 μl buffer before the addition of 10 μl of the assay buffer containing the putative P2X7 receptor antagonist compound, the compound being added at 4× the final assay concentration chosen. The solution of the putative P2X7 receptor antagonist compound was created by (i) dissolving the compound in dimethyl sulfoxide (DMSO) to create a stock solution in DMSO at 200× the final assay concentration, and (ii) mixing 1 μl of the stock solution of the compound in DMSO with 50 μl of the assay buffer to create a solution at about 4× the final assay concentration. The cells were then incubated at room temperature for 30 mins before addition (online, by FLIPR384 or FLIPR3 instrument (Molecular Devices, 1311 Orleans Drive, Sunnyvale, Calif. 94089-1136, USA)) of benzoylbenzoyl-ATP (BzATP) such as to create a 60 μM final assay concentration of BzATP (BzATP was added at 5× this final concentration). The BzATP concentration was chosen to be close to the EC80 for the receptor type. Incubations and reading were continued for 90 sec, and intracellular calcium increase was determined by measuring fluorescence (excitation wavelength of 488 nm and emission wavelength of 516 nm) from below the plate, with FLIPR charged-coupled device (CCD) camera. Antagonist pIC50 values for blocking BzATP responses were determined using iterative curve fitting techniques.

## CN1CC(C(=O)NCc2cccc(C(F)(F)F)c2Cl)CC1=O (single isomer, unassigned) [5A stereoisomer 1]
[1]
  IC50: 158 to 200 nM

## CN1CC(C(=O)NCc2cccc(C(F)(F)F)c2Cl)CC1=O (single isomer, unassigned) [5A stereoisomer 2]
[1]
  IC50: 39.8 to 50.1 nM

## C[C@H](c1ccccc1)N1CC(C(=O)NCc2ccc(F)cc2Cl)CC1=O (stereo partly drawn) [Example 1, N-[(2-chloro-4-fluorophenyl)methyl]-5-oxo-1-[(1R)-1-phenylethyl]-3-pyrrolidinecarboxamide]
[1]
  IC50: < 3160 nM
[2]
  IC50: ≤ 20000 nM

## O=C(NCc1ccc(F)cc1Cl)C1CC(=O)N(C2CC2)C1 (centres unmarked) [Example 2, N-[(2-Chloro-4-fluorophenyl)methyl]-1-cyclopropyl-5-oxo-3-pyrrolidinecarboxamide]
[1]
  IC50: < 3160 nM
[2]
  IC50: ≤ 20000 nM

## O=C(NCc1ccc(Cl)cc1Cl)C1CC(=O)N(C2CC2)C1 (centres unmarked) [Example 3, 1-Cyclopropyl-N-[(2,4-dichlorophenyl)methyl]-5-oxo-3-pyrrolidinecarboxamide]
[1]
  IC50: < 3160 nM and 31.6 to 316 nM
[2]
  IC50: ≤ 20000 nM

## O=C(NCc1cccc(C(F)(F)F)c1Cl)C1CC(=O)N(C2CC2)C1 (centres unmarked) [Example 4, N-{[2-chloro-3-(trifluoromethyl)phenyl]methyl}-1-cyclopropyl-5-oxo-3-pyrrolidinecarboxamide]
[1]
  IC50: < 3160 nM and 31.6 to 316 nM
[2]
  IC50: ≤ 20000 nM

## CN1CC(C(=O)NCc2cccc(C(F)(F)F)c2Cl)CC1=O (centres unmarked) [Example 5, N-{[2-chloro-3-(trifluoromethyl)phenyl]methyl}-1-methyl-5-oxo-3-pyrrolidinecarboxamide]
[1]
  IC50: < 3160 nM and 31.6 to 316 nM and 50.1 to 63.1 nM
[2]
  IC50: ≤ 20000 nM

## CN1CC(C(=O)NCc2ccc(Cl)cc2Cl)CC1=O (centres unmarked) [Example 6, N-[(2,4-dichlorophenyl)methyl]-1-methyl-5-oxo-3-pyrrolidinecarboxamide]
[1]
  IC50: < 3160 nM and 31.6 to 316 nM
[2]
  IC50: ≤ 20000 nM

## CCN1CC(C(=O)NCc2ccc(Cl)cc2Cl)CC1=O (centres unmarked) [Example 7, N-[(2,4-dichlorophenyl)methyl]-1-ethyl-5-oxo-3-pyrrolidinecarboxamide]
[1]
  IC50: < 3160 nM and 31.6 to 316 nM
[2]
  IC50: ≤ 20000 nM

## CCN1CC(C(=O)NCc2cccc(C(F)(F)F)c2Cl)CC1=O (centres unmarked) [Example 8, N-{[2-chloro-3-(trifluoromethyl)phenyl]methyl}-1-ethyl-5-oxo-3-pyrrolidinecarboxamide]
[1]
  IC50: < 3160 nM and 31.6 to 316 nM
[2]
  IC50: ≤ 20000 nM

## CC(C)CN1CC(C(=O)NCc2cccc(C(F)(F)F)c2Cl)CC1=O (centres unmarked) [Example 9, N-{[2-chloro-3-(trifluoromethyl)phenyl]methyl}-1-(2-methylpropyl)-5-oxo-3-pyrrolidinecarboxamide]
[1]
  IC50: < 3160 nM and 31.6 to 316 nM
[2]
  IC50: ≤ 20000 nM

## CC(C)CN1CC(C(=O)NCc2ccc(Cl)cc2Cl)CC1=O (centres unmarked) [Example 10, N-[(2,4-dichlorophenyl)methyl]-1-(2-methylpropyl)-5-oxo-3-pyrrolidinecarboxamide]
[1]
  IC50: < 3160 nM and 31.6 to 316 nM
[2]
  IC50: ≤ 20000 nM

## O=C(NCc1cccc(C(F)(F)F)c1Cl)C1CC(=O)N(Cc2ccccc2)C1 (centres unmarked) [Example 11, N-{[2-chloro-3-(trifluoromethyl)phenyl]methyl}-5-oxo-1-(phenylmethyl)-3-pyrrolidinecarboxamide]
[1]
  IC50: < 3160 nM and 31.6 to 316 nM
[2]
  IC50: ≤ 20000 nM

## O=C(NCc1ccc(Cl)cc1Cl)C1CC(=O)N(Cc2ccccc2)C1 (centres unmarked) [Example 12, N-[(2,4-dichlorophenyl)methyl]-5-oxo-1-(phenylmethyl)-3-pyrrolidinecarboxamide]
[1]
  IC50: < 3160 nM and 31.6 to 316 nM
[2]
  IC50: ≤ 20000 nM
